Reference: patent US20040005537A1, “Method of identifying toxic agents using differential gene expression” (priority 2000, published 2004)

Test system: rat heart tissue
Assay: GENECALLING differential gene expression analysis after dosing of serotonin modulating agents
Format: in vivo, Sprague Dawley rats
Procedure, shortened: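 GENECALLING profiling of cDNA from total RNA, keeping gene fragments modulated beyond ±1.5-fold. Tissue collected 24 h after final dosing of serotonin modulating agents; control rats received sterile water or canola oil.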

## CC(C)CC(N(C)C)C1(c2ccc(Cl)cc2)CCC1 (stereo not shown) [sibutramine]
CARDIOTOX 70
  Effects on Transcription Level: Novel gene fragment, 467 bp, 94% SI to mouse gelsolin [J04953]: −1.7 fold
CARDIOTOX 71
  Effects on Transcription Level: Novel gene fragment, 535 bp, 90% SI to mouse slow/cardiac troponin C [M29793]: −1.9 fold
CARDIOTOX 72
  Effects on Transcription Level: Novel gene fragment, 445 bp, 85% SI to human skeletal muscle alpha 2 actinin [M86406]: −2.2 fold
CARDIOTOX 73
  Effects on Transcription Level: Novel gene fragment, 246 bp, 89% SI to mouse ponsin-1 [AF078667]: −2.8 fold
CARDIOTOX 74
  Effects on Transcription Level: Novel gene fragment, 126 bp, 77% SI to human DNA sequence from cosmid V311G7, between markers DXS366 and DXS87 on chromosome X [Z69304]: +2.2 fold
CARDIOTOX 75
  Effects on Transcription Level: Novel gene fragment, 370 bp: −1.9 fold
CARDIOTOX 76
  Effects on Transcription Level: Novel gene fragment, 337 bp, 78% SI to novel human protein AHNAK [M80899]: −3.5 fold
CARDIOTOX 77
  Effects on Transcription Level: Novel gene fragment, 100 bp, 93% SI to human KIAA0750 protein [ABO18293]: −8.4 fold
CARDIOTOX 78
  Effects on Transcription Level: Novel gene fragment, 44 bp: −2.9 fold
CARDIOTOX 79
  Effects on Transcription Level: Novel gene fragment, 698 bp, 93% SI to mouse plenty-of-prolines-101 [AF062655]: −2.3 fold
CARDIOTOX 80
  Effects on Transcription Level: Novel gene fragment, 660 bp, 84% SI to mouse membrane protein TMS-2 [AF181685]: −1.9 fold
CARDIOTOX 81
  Effects on Transcription Level: Novel gene fragment, 115 bp: −13.1 fold
CARDIOTOX 82
  Effects on Transcription Level: Novel gene fragment, 294 bp, 95% SI to mouse Ndr1 related protein Ndr2 [AB033921]: −3.3 fold
CARDIOTOX 83
  Effects on Transcription Level: Novel gene fragment, 198 bp: +3.1 fold
CARDIOTOX 84
  Effects on Transcription Level: Novel gene fragment, 730 bp, 86% SI to mouse E800 [Y10968]: −2.1 fold
CARDIOTOX 85
  Effects on Transcription Level: Novel gene fragment, 294 bp, 98% SI to cysteine conjugate beta-lyase [S61960]: −2.1 fold
CARDIOTOX 86, GenBank A1243266
  Effects on Transcription Level: Aconitase: −2.9 fold
CARDIOTOX 87, GenBank M17422
  Effects on Transcription Level: Ribosomal protein L7: +3.7 fold
CARDIOTOX 88, GenBank X51706
  Effects on Transcription Level: Ribosomal protein L9: +8.0 fold
CARDIOTOX 89, GenBank X53504
  Effects on Transcription Level: Ribosomal protein L12: −1.5 fold
CARDIOTOX 90, GenBank V01270
  Effects on Transcription Level: 18S, 5.8S, and 28S ribosomal RNA's: +6 fold
CARDIOTOX 91, GenBank U10357
  Effects on Transcription Level: Pyruvate dehydrogenase kinase 2 (PDK2): −9.5 fold
CARDIOTOX 92, GenBank J03179
  Effects on Transcription Level: D-Binding Protein (DBP): −1.7 fold
CARDIOTOX 93, GenBank L03294
  Effects on Transcription Level: Lipoprotein lipase: −2.5 fold
CARDIOTOX 94, GenBank X02610
  Effects on Transcription Level: Non-neuronal enolase: +3.1 fold
CARDIOTOX 95, GenBank L10669
  Effects on Transcription Level: Glycogen phosphorylase (muscle isozyme): −2.0 fold
CARDIOTOX 96, GenBank X14209
  Effects on Transcription Level: Cytochrome c oxidase subunit IV: +8.0 fold
CARDIOTOX 97, GenBank M17083
  Effects on Transcription Level: Alpha-globin: +7.0 fold
CARDIOTOX 98, GenBank X06701
  Effects on Transcription Level: Beta-globin: +5.0 fold
CARDIOTOX 99, GenBank AF197916
  Effects on Transcription Level: Myoglobin: +7.0 fold
CARDIOTOX 100, GenBank L38717
  Effects on Transcription Level: Titin: +1.5 fold
CARDIOTOX 101, GenBank V01218
  Effects on Transcription Level: Skeletal muscle actin: −3.8 fold
CARDIOTOX 102, GenBank M11851
  Effects on Transcription Level: Myosin light chain 2 (MLC2): +1.9 fold
CARDIOTOX 103, GenBank X15938
  Effects on Transcription Level: Alpha cardiac myosin heavy chain: −3.2 fold
CARDIOTOX 104, GenBank U77354
  Effects on Transcription Level: Troponin I: +1.6 fold
CARDIOTOX 105, GenBank AF001334
  Effects on Transcription Level: Cardiac calsequestrin: −2.5 fold
CARDIOTOX 106, GenBank M16975
  Effects on Transcription Level: Sulfated glycoprotein 2: −1.5 fold
CARDIOTOX 107, GenBank AB000507
  Effects on Transcription Level: Aquaporin 7: +1.6 fold
CARDIOTOX 108, GenBank X97831
  Effects on Transcription Level: Carnitine/acylcarnitine carrier protein: −1.9 fold
CARDIOTOX 109, GenBank U40628
  Effects on Transcription Level: Glu-Pro Dipeptide Repeat: −5.5 fold
CARDIOTOX 110, GenBank X54737
  Effects on Transcription Level: Cystatin beta: +3.1 fold
CARDIOTOX 111
  Effects on Transcription Level: Novel gene fragment, 593 bp, 90% SI to human calcineurin B-like protein [Z08983]: +2.1 fold
CARDIOTOX 112
  Effects on Transcription Level: Novel gene fragment, 179 bp, 88% SI to human titin [X90568]: −2.0 fold
CARDIOTOX 113
  Effects on Transcription Level: Novel gene fragment, 700 bp, 91% SI to mouse periplakin (PPL) [AF116523]: +2.2 fold
CARDIOTOX 114, GenBank J05029
  Effects on Transcription Level: Long chain acyl-CoA dehydrogenase (LCAD): +1.8 fold
CARDIOTOX 115, GenBank M19936
  Effects on Transcription Level: Sulfated glycoprotein 1 (SGP-1): −2.3 fold
CARDIOTOX 116, GenBank M11670
  Effects on Transcription Level: Catalase: +1.8 fold
CARDIOTOX 117, GenBank AF084186
  Effects on Transcription Level: Alpha-fodrin (A2A) (Nonerythroid spectrin alpha subunit): +5.0 fold
CARDIOTOX 118, GenBank M27902
  Effects on Transcription Level: Cardiac specific sodium channel alpha-subunit: −2.9 fold
CARDIOTOX 119, GenBank U40628
  Effects on Transcription Level: Glu-Pro Dipeptide Repeat: +6.0 fold
CARDIOTOX 120
  Effects on Transcription Level: Novel gene fragment, 200 bp, 64% SI to human KIAA0733 protein [AB018316]: −1.5 fold
CARDIOTOX 121, GenBank L42855
  Effects on Transcription Level: RNA polymerase II transcription factor SIII (p18 subunit): +2.0 fold
CARDIOTOX 122, GenBank L01702
  Effects on Transcription Level: Protein-tyrosine phosphalase (LRP): +1.5 fold
CARDIOTOX 123, GenBank U25264
  Effects on Transcription Level: Skeletal muscle selenoprotein W (SelW): −1.5 fold
CARDIOTOX 124, GenBank X15635
  Effects on Transcription Level: Sarcoplasmic reticulum 2+-Ca-ATPase: −2.0 fold
CARDIOTOX 125, GenBank X53377
  Effects on Transcription Level: Ribosomal protein S7: +1.8 fold
CARDIOTOX 126, GenBank X05300
  Effects on Transcription Level: Ribophorin I: +1.6 fold
CARDIOTOX 127, GenBank X15939
  Effects on Transcription Level: Beta cardiac myosin heavy chain: −1.7 fold
CARDIOTOX 128, GenBank L12380
  Effects on Transcription Level: ADP-ribosylation factor 1: −2.0 fold
CARDIOTOX 129, GenBank U04942
  Effects on Transcription Level: Laminin receptor: +4.6 fold
CARDIOTOX 130
  Effects on Transcription Level: Novel gene fragment, 206 bp, 89% SI to human seryl-tRNA synthetase [X91257]: +1.4 fold
CARDIOTOX 131, GenBank X86086
  Effects on Transcription Level: Annexin VI: +1.4 fold
CARDIOTOX 132
  Effects on Transcription Level: Novel gene fragment, 325 bp, 90% SI to mouse N-RAP [U76618]: −1.1 fold
LD10 dose for three days
  Effects on Transcription Level: Novel gene fragment, 61 bp (CARDIOTOX 134): +1.0 fold
  Effects on Transcription Level: Novel gene fragment, 337 bp (CARDIOTOX 133): −1.1 fold
  Effects on Transcription Level: Novel gene fragment, 378 bp, 88% SI to human coatomer protein (COPA) [U24105] (CARDIOTOX 138): −2.3 fold
LD10 dose for three days, GenBank D16479
  Effects on Transcription Level: Long chain 3-ketoacyl-CoA thiolase (CARDIOTOX 136): −2.0 fold
LD10 dose for three days, GenBank D87671
  Effects on Transcription Level: TATA-binding protein interacting protein 120 (TIP120) (CARDIOTOX 135): +1.3 fold
LD10 dose for three days, GenBank D88250
  Effects on Transcription Level: Serine protease (CARDIOTOX 139): +1.3 fold
LD10 dose for three days, GenBank M34043
  Effects on Transcription Level: Thymosin beta-4 (CARDIOTOX 137): +1.5 fold
